Experimental data: publication PMC4281207, “Dr-FtsA, an Actin Homologue in Deinococcus radiodurans Differentially Affects Dr-FtsZ and Ec-FtsZ Functions In Vitro” (PLoS ONE, 2014)

Assays:
Dr-FtsZ [1] = target: T1, Dr-FtsZ (Deinococcus radiodurans, UniProt Q9RWN5); assay: malachite green Pi release; [α[…]]-GTP TLC; assay type: biochemical; settings: PIPES pH 7.5, 50 mM KCl, 2 mM MgCl2, 1 mM GTP (0.5 mM in TLC assay), 37 °C
T1 construct: 42 kDa
T1 sequence (Q9RWN5 1-371): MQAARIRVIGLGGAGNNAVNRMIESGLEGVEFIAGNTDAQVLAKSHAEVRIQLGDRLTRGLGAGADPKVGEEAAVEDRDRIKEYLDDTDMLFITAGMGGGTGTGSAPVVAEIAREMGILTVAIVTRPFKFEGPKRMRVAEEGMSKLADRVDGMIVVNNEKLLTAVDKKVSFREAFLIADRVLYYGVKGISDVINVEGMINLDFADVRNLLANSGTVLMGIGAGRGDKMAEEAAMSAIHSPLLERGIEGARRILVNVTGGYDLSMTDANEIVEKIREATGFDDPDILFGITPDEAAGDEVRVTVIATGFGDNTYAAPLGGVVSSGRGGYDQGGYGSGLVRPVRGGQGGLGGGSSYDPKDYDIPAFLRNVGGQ

Dr-FtsZ [2] = target: T1, Dr-FtsZ; assay: stimulation of GTPase activity; [α[…]]-GTP TLC; assay type: biochemical; settings: 0.5 mM ATP, 0.5 mM GTP, 2 mM MgCl2, PIPES pH 7.5, 37 °C; activator, site not known; ATP not hydrolysed
Dr-FtsA = target: T2, Dr-FtsA (Deinococcus radiodurans, UniProt Q9RWN6); assay: circular dichroism; transmission electron microscopy of polymers; assay type: binding; settings: 10 µM ATP (CD) or 1 mM ATP (TEM), 37 °C; 25 mM PIPES pH 7.5, 50 mM KCl, with or without 5 mM MgCl2 (TEM); ATP not hydrolysed
T2 construct: full-length from pBADDFtsA (pBAD/HisA), expressed in E. coli TOP10; His tag removed; 54 kDa
T2 sequence (Q9RWN6 1-517): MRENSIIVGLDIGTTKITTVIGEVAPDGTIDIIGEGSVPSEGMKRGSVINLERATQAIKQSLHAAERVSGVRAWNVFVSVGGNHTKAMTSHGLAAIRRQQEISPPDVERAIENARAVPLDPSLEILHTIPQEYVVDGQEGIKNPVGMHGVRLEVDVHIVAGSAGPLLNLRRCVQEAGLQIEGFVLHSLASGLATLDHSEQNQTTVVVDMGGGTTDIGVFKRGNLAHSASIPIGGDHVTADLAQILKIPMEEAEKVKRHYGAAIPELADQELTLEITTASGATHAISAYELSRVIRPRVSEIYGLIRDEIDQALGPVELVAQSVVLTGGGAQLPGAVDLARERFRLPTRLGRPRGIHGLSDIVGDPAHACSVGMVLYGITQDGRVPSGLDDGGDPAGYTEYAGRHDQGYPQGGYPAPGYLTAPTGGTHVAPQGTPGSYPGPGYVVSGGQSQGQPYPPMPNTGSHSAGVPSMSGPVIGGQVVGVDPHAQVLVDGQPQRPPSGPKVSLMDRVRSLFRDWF

Structure (SMILES) | malachite green Pi release; [α32P]-GTP TLC (Dr-FtsZ [1]) | stimulation of GTPase activity; [α32P]-GTP TLC (Dr-FtsZ [2]) | circular dichroism; transmission electron microscopy of polymers (Dr-FtsA)
Nc1nc2c(ncn2[C@@H]2O[C@H](COP(=O)(O)OP(=O)(O)OP(=O)(O)O)[C@@H](O)[C@H]2O)c(=O)[nH]1 [GTP] | GTPase activity of Dr-FtsZ was stimulated in the presence of Dr-FtsA | – | –
Nc1ncnc2c1ncn2[C@@H]1O[C@H](COP(=O)(O)OP(=O)(O)OP(=O)(O)O)[C@@H](O)[C@H]1O [ATP] | – | the GTPase activity of Dr-FtsZ was stimulated in the presence of ATP (Fig. 2C) | had the correct secondary structure assignment, and interacted with ATP in solution
